Source: paper PMC11195995, “A homogeneous time-resolved fluorescence screen to identify SIRT2 deacetylase and defatty-acylase inhibitors” (PLOS ONE, 2024)
“Also recorded” adds a separate entry of the source. Where two headings read alike, the source gives them in different places. Primed or numbered codes have the meaning given here. Ends that are not written are not given here. * marks the point of attachment. Myristoyl = CCCCCCCCCCCCCC(=O)*; PEG4′ = PEG4 linker; FAM = fluorescein

How the values were obtained:
SIRT2 [1] = target: T1, SIRT2 (Homo sapiens, UniProt Q8IXJ6); details: read-out: IC50 for SIRT2 demyristoylase activity; cited from earlier work
T1 sequence (Q8IXJ6 34-356): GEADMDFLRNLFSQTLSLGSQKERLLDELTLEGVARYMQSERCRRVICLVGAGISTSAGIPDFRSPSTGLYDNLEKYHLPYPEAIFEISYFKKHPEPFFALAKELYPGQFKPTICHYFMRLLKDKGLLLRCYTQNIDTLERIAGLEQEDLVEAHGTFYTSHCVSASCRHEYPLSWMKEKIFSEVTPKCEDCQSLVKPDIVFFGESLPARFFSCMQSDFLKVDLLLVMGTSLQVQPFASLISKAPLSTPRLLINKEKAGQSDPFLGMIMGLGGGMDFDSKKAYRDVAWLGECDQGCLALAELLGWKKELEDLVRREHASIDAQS

SIRT2 [2] = target: T1, SIRT2; details: cited from earlier work
[3] = target: SIRT2—decanoyl peptide complex; parameters: method as in PMID 32941003; details: cited from earlier work
[4] = target: T2, human SIRT2 catalytic domain (6xHis-SUMO-SIRT2) (Homo sapiens, UniProt Q8IXJ6)
T2 sequence (Q8IXJ6 34-356): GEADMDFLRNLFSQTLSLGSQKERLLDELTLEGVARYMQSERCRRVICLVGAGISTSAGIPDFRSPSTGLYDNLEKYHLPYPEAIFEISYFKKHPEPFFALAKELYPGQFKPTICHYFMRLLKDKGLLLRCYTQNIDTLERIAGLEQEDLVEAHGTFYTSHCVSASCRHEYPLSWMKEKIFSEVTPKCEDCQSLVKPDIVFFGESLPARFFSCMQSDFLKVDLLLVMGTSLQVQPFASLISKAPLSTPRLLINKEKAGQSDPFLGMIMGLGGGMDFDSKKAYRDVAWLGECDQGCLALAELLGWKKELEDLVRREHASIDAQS

[5] = system: acetylated alpha-tubulin in A549 SIRT2-KO cells; assay: Immunofluorescence staining of acetylated alpha-tubulin in A549 SIRT2-KO cells; assay type: cell-based, human; details: 25 μM, 6 hours
[6] = system: acetylated alpha-tubulin in A549 cells; assay: Immunofluorescence staining of acetylated alpha-tubulin in A549 cells; assay type: cell-based, human; details: 25 μM, 6 hours
Description: 100,000 A549 or A549 SIRT2-KO cells were seeded on a coverslip that was placed in the well of 6-well plate, and the cells were grown overnight in full DMEM. […] The cells were then washed three times with PBS, fixed with 4% paraformaldehyde for 10 min, then washed again three times with PBS. Cells were incubated with 0.2% Triton X-100 for 15 minutes on a shaker followed by three more PBS washes. The cells were then blocked with 2% BSA in PBS for 1 hour at room temperature. […] Slides were imaged using a Keyence BZ-X710 fluorescence microscope with the following filter settings: DAPI, excitation/emission was 300–400 nm/438-484 nm; Alexa Fluor 488, excitation/emission was 448 nm/500-550 nm. All images were obtained under identical conditions, and fluorescence intensities were quantified using Fiji/ImageJ without any manipulation to the images. The fluorescence intensity from at least six cells per coverslip were randomly selected and measured targeting the cytosol (for measuring acetylated alpha-tubulin levels via Alexa Fluor 488) or the nucleus (for measuring nuclear DNA staining via DAPI). Relative fluorescence intensity was calculated as the ratio of Alexa Fluor 488/DAPI intensities. […]

A549 cells = assay: Cell viability MTT assay; assay type: cell-based, human; details: 72 hours treatment, concentrations shown in Fig 4F and 4G
Description: 5,000 A549 cells were seeded in a 96-well plate in full DMEM. The total volume in each well was 150 μl, and the DMSO concentration was 0.7%. After this treatment period, 10 μl of MTT reagent was added to each well, then the cells were cultured for 4 hour before adding 100 μl of crystal dissolving solution for another 16 hour incubation (Cayman Chemical, catalog #10009365). The absorbance in each well was measured at 570 nm and was used to determine the cell viability by comparing the absorbance of drug treated cells to control (DMSO treated) cells.

[7] = target: T2, human SIRT2 catalytic domain (6xHis-SUMO-SIRT2); assay: biochemical
[8] = target: T2, human SIRT2 catalytic domain (6xHis-SUMO-SIRT2); assay: SIRT2—myristoyl-peptide HTRF binding assay (displacement of FAM-myristoyl-H4K16 peptide); details: at the highest ligand concentrations
SIRT2 [9] = target: T1, SIRT2; assay: 1-aminoanthracene binding competition assay, SIRT2 alone
Description: Competition assays where 1-aminoanthracene was displaced from SIRT2 by 2, 4, 5, and 6 were performed as previously reported where we described its displacement from SIRT2 by 3. The assays were also cuvette-based and performed at 23°C in PBS with 1 mM DTT, and the final DMSO concentration was 0.6%. Briefly, the fluorescence intensity of 100 nM 1-aminoanthracene was measured in the presence of 4 μM SIRT2 and increasing amounts of ligand using excitation/emission wavelengths of 390 nm/520 nm. As previously described, displacement of 1-aminoanthracene from SIRT2 by a competitor results in a reduction of its fluorescence.
(§1) We determined and report absolute IC50 values from the curves which reflect ligand concentrations that reduce the fluorescence by 50% compared to control (no ligand) samples.

SIRT2 [10] = target: T1, SIRT2; assay: SIRT2 deacetylase activity assay (MALDI-MS, acetyl-H4K16 peptide); assay type: biochemical; details: for Deacetylase IC50: 4 μM acetyl-H4K16, 1 mM NAD+, 37°C, absolute IC50, "no effect" = 200 μM compound did not significantly affect SIRT2 activity
Description: (§2) The enzymatic activity of SIRT2 was measured using a MALDI-MS—based protocol reported previously. Reactions were performed at 37°C for 2.5 min in PBS containing 1 mM DTT and 1 mM of NAD^+. Acylated H4K16 peptides were used as the substrates at the following concentrations: acetyl-H4K16, 4 μM; decanoyl-H4K16, 0.2 μM; dodecanoyl-H4K16, 0.5 μM; myristoyl-H4K16, 0.5 μM. These concentrations correspond to the enzyme’s Km for each substrate under saturating NAD^+ conditions. The enzyme concentration in each reaction was chosen such that 20% or less of the substrate was processed by the enzyme when the reactions were quenched. In dose-response assays showing a reduction in SIRT2 activity by increasing amounts of ligand, the data was fit with standard sigmoidal dose-response curves as we previously described. We report absolute IC50 values from the curves which reflect ligand concentrations that reduce the activity of the enzyme by 50% compared to control (no ligand) samples. Assays measuring the effects of ligand on SIRT1 deacetylase and SIRT6 demyristoylase activities were performed similarly, as previously described.

SIRT2 [11] = target: T1, SIRT2; assay: SIRT2 demyristoylase activity assay (MALDI-MS, myristoyl-H4K16 peptide); assay type: biochemical; details: for Demyristoylase IC50: 0.5 μM myristoyl-H4K16, 1 mM NAD+, 37°C, absolute IC50, "no effect" = 200 μM compound did not significantly affect SIRT2 activity
Description: as §2

SIRT2 [12] = target: T1, SIRT2; assay: SIRT2 binding competition assay using Cy3-myristoyl-H4K16 peptide; details: concentrations as high as 100 μM
Description: Competition assays where Cy3-myristoyl-H4K16 peptide was displaced from SIRT2 by 1 were performed as previously described. Assays were performed in PBS with 1 mM DTT at 23°C in a quartz microcuvette (160 μl assay volume). Briefly, the fluorescence intensity of 50 nM Cy3-myristoyl-H4K16 peptide was measured in the presence of 2.5 μM SIRT2 and increasing amounts of 1 using excitation/emission wavelengths of 535 nm/560 nm. The final DMSO concentration in each measurement was 0.6%. As previously described, displacement of Cy3-myristoyl-H4K16 peptide from SIRT2 by a competitive ligand results in a reduction of its fluorescence.
as §1, with “The data from both competition assays show a reduction in probe fluorescence at increasing concentrations of competitor ligands. […] We” for “We”

[13] = target: T3, 6xHis-SUMO-SIRT2 (human SIRT2 catalytic domain, amino acids 34-356, with N-terminal 6xHis-SUMO tag) (human, UniProt Q8IXJ6 34-356); assay: AlphaScreen or HTRF; direct binding; 6xHis-SUMO-SIRT2 and FAM-myristoyl-H4K16 peptide 0-10 nM each, 0.2 nM anti-6xHis terbium cryptate-labeled antibody as FRET donor; 384-well plates, room temperature, 10 mM Hepes-NaOH pH 7.4, 150 mM NaCl, 5 mM DTT, 0.005% Tween-20; apparent Kd; details: both partners purified
T3 construct: human SIRT2 catalytic domain, amino acids 34-356; Used in the HTRF assays; held near the FRET donor by a terbium cryptate-labeled anti-6xHis antibody (a tool); also called His tagged-SIRT2; sirtuin-2; not shown: His6, N-terminal, kept; SUMO, N-terminal, kept
T3 sequence (looked up): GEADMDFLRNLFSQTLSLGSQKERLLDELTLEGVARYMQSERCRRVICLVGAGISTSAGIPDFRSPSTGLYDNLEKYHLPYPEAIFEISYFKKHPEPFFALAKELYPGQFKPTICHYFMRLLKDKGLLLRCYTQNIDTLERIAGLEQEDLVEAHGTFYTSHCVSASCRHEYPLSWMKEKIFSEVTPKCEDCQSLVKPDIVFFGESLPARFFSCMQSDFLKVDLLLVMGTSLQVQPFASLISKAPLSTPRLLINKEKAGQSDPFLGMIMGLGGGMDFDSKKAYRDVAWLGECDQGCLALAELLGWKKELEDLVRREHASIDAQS

[14] = target: T3, 6xHis-SUMO-SIRT2 (human SIRT2 catalytic …); assay: AlphaScreen or HTRF; competition; 3 nM SIRT2, 0.2 nM terbium cryptate-labeled antibody, 3 nM FAM-myristoyl-H4K16 peptide, 10 ul/well; unlabeled myristoyl-H4K16 peptide as competitor; details: both partners purified
[15] = target: T4, SIRT2 catalytic domain (human, amino acids 34-356), 6xHis-SUMO tag removed (human, UniProt Q8IXJ6 34-356); assay: ITC; PBS, 25°C; 20 uM SIRT2 in the cell, 200 uM peptide in the syringe; one site binding model; details: both partners purified
T4 construct: human SIRT2 catalytic domain, amino acids 34-356; also called sirtuin-2; source: tag removed, chromatographically purified; not shown: His6, N-terminal, cleaved; SUMO, N-terminal, cleaved
T4 sequence (looked up): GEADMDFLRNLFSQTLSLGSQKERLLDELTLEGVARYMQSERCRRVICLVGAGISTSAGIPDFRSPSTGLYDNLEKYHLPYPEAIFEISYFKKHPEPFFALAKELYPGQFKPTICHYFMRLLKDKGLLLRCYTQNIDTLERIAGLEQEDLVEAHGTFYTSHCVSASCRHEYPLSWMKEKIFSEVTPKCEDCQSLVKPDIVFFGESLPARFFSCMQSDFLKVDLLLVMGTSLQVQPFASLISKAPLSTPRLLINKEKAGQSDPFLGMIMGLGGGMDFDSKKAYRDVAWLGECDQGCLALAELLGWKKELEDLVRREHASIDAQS

Nc1cccc2cc3ccccc3cc12 [1-aminoanthracene]
IC50 (SIRT2 [1]): 21 µM
Kd (SIRT2 [2]; read-out: Kd for SIRT2 alone): 37 µM
Kd [3]: 4 µM

COc1ccc(NC(=O)c2ccc3c(SCC(=O)O)c4c(nc3c2)CCCC4)c(OC)c1 [C598-0017]
IC50 [4]: 6.34 µM

Cc1cc(C)nc(SCC(=O)Nc2ncc(Cc3cccc4ccccc34)s2)n1 [SirReal2, reference compound]
level of acetylated alpha-tubulin (immunofluorescence) [5]: no effect
level of acetylated alpha-tubulin (immunofluorescence) [6]: increased acetylated alpha-tubulin to similar levels as 1; also recorded: enhanced fluorescence
viability / toxicity in A549 cells (MTT) (A549 cells): did not cause toxicity; also recorded: no effect

CCCCCCCCCCCCCCCC(=O)OC[C@H](O)[C@H]1OC(=O)C(O)=C1O [ascorbyl palmitate]
IC50 [7]: 2 µM
maximum reduction of HTRF FRET signal (displacement of FAM-myristoyl-H4K16 peptide) [8]: ~ 40%
IC50 (SIRT2 [1]): 8 to 23 µM
Kd (SIRT2 [2]; read-out: published Kd for SIRT2): 3 to 5 µM

Cc1ccc(C(C)C)c(O)c1 [compound 4, 2-isopropyl-5-methylphenol]
IC50 (SIRT2 [9]): 128 µM
Kd (SIRT2 [9]): 116 µM

CCCCCc1ccc(C)cc1O [compound 6, 5-methyl-2-pentylphenol]
IC50 (SIRT2 [9]; SIRT2 only, 100 nM 1-aminoanthracene, 4 μM SIRT2): 81 µM
Kd (SIRT2 [9]; read-out: SIRT2 Kd): 73 µM

FC(F)(F)C1(c2ccccc2)N=N1 [compound 8, 3-phenyl-3-(trifluoromethyl)-3H-diazirine]
IC50 (SIRT2 [10]): 114 µM
Demyristoylase IC50 (SIRT2 [11]): no effect

Oc1c(F)cc(Br)cc1I [compound 9, 4-bromo-2-fluoro-6-iodophenol]
Deacetylase IC50 (SIRT2 [10]): no effect
Demyristoylase IC50 (SIRT2 [11]): no effect

Oc1c(I)cc(Br)cc1I [compound 10, 4-bromo-2,6-diiodophenol]
Deacetylase IC50 (SIRT2 [10]): no effect
Demyristoylase IC50 (SIRT2 [11]): no effect

Oc1ccc(Br)cc1C(F)(F)F [compound 11, 4-bromo-2-(trifluoromethyl)phenol]
Deacetylase IC50 (SIRT2 [10]): no effect
Demyristoylase IC50 (SIRT2 [11]): no effect

Oc1c(F)cc(Br)cc1F [compound 12, 4-bromo-2,6-difluorophenol]
Deacetylase IC50 (SIRT2 [10]): no effect
Demyristoylase IC50 (SIRT2 [11]): no effect

CCCCOc1cc(F)c(O)c(F)c1 [compound 13, 4-butoxy-2,6-difluorophenol]
Deacetylase IC50 (SIRT2 [10]): no effect
Demyristoylase IC50 (SIRT2 [11]): no effect

Oc1cc(C(F)(F)F)ccc1F [compound 14, 2-fluoro-5-(trifluoromethyl)phenol]
Deacetylase IC50 (SIRT2 [10]): no effect
Demyristoylase IC50 (SIRT2 [11]): no effect

O=C1CSc2nc3ccccc3n21 [compound 15, [1, 3]thiazolo[3,2-a]benzimidazole-3(2H)-one]
displacement of Cy3-myristoyl-H4K16 peptide from SIRT2 / interaction with SIRT2 (SIRT2 [12]): too weak to measure a Kd; also recorded: did not efficiently displace
Deacetylase IC50 (SIRT2 [10]): not effective; also recorded: no effect
IC50 (SIRT2 [11]): 117 µM
displacement of 1-aminoanthracene from SIRT2 (SIRT2 [9]; concentrations as high as 100 μM): did not efficiently displace

Cc1ccc(C(=O)Nc2ccc(S(=O)(=O)O)c3cc(S(=O)(=O)O)cc(S(=O)(=O)O)c23)cc1NC(=O)c1cccc(NC(=O)Nc2cccc(C(=O)Nc3cc(C(=O)Nc4ccc(S(=O)(=O)O)c5cc(S(=O)(=O)O)cc(S(=O)(=O)O)c45)ccc3C)c2)c1 [suramin]
IC50 (SIRT2 [1]): 95 µM

{FAM-PEG4′}-KGLGKGGAK(Myristoyl)RHRK
Kd [13]: ~0.001 µM

KGLGKGGAK(Myristoyl)RHRK
IC50 [14]: 0.002 µM
Kd [15]: 0.013 µM
